In patent US20090298752A1, “APLIDINE TREATMENT OF CANCERS” (PHARMA MAR, S.A., priority 1999, published 2009):
“Also recorded” adds a separate entry of the source.

Experiments:
B-RAF = test: cDNA expression array in MOLT-4 cells; type: cell-based, human; settings: for quantitative change in B-RAF expression: MOLT-4, 1 h treatment
Protocol: (§1) The early changes in gene expression induced by aplidine in MOLT-4 cells were evaluated by using cDNA expression arrays (Atlas Human Cancer, Clontech). MOLT-4 cells were treated for 1 hour with concentrations of aplidine which inhibit the growth by 50% and total RNA was isolated at 0, 1, 6 and 24 hours after drug wash out. Filters were hybridised with equal amount of 32P labelled cDNA. Analysis of the results was carried out using ATLAS IMAGE 1.0 software. Changes in gene expression greater than 2 fold were taken as significant changes in RNA expression and subsequently confirmed by PCR.
as §1, with “In the present study we have evaluated the early” for “The early”, “cells” for “cells were evaluated”, “of aplidien” for “of aplidine”, “isolated t” for “isolated at”, “equal amounts” for “equal amount”, “PCR. […] Whether the down-regulation of flt-1 is involved in the cytotoxic and antitumour effect of aplidine is under investigation at the moment.” for “PCR.”
(§2) The human leukaemia cell line MOLT-4 was used for these experiments MOLT-4 cells were treated for 1 hour with 20 nM of aplidine. Total RNA was extracted at the end of treatment and 6 and 24 hours after recovery in drug-free medium.
(§3) 5 μg of total RNA were retrotanscribed to cDNA in the presence of ^32P dATP. Equal amounts of radioactive probes were hybridised to Atlas Human Cancer Microarrays (Clontech). After washing, filter were exposed and the results analysed using the Atlas Image software. Only a gene expression difference greater than 2 fold between treated and untreated cells were taken into account. RT-PCR and northern analysis have been performed to confirm the changes in gene expression found with the microarrays.

PLK-1 = test: cDNA expression array in MOLT-4 cells; type: cell-based, human; settings: MOLT-4, 1 h treatment
Protocol: as §1
as §1, with “In the present study we have evaluated the early” for “The early”, “cells” for “cells were evaluated”, “of aplidien” for “of aplidine”, “isolated t” for “isolated at”, “equal amounts” for “equal amount”, “PCR. […] Whether the down-regulation of flt-1 is involved in the cytotoxic and antitumour effect of aplidine is under investigation at the moment.” for “PCR.”
as §2, §3

VEGF = VEGF secretion from MOLT-4 cells (ELISA); type: cell-based, human
Protocol: Cells were treated for 1 h with 20 nM aplidine. VEGF secreted in the medium was measured by ELISA at the end of treatment and after 6 and 24 hours incubation in drug-free medium.

cardiac H9 c2 (2-1) = test: CellTiter96 (MTS) in vitro cytotoxicity assay; type: cell-based
Description: (§4) In fact, the dose limiting toxicity in humans is skeletal muscle atrophy.

kidney (NRK-52E) cells = test: CellTiter96 (MTS) in vitro cytotoxicity assay; type: cell-based
Description: as §4

liver (AML-12) = test: CellTiter96 (MTS) in vitro cytotoxicity assay; type: cell-based
Description: as §4

[1] = test system: myelogenous stem cells (FDC-P1); test: CellTiter96 (MTS) in vitro cytotoxicity assay; type: cell-based
Description: as §4

skeletal muscle (L8) = test: CellTiter96 (MTS) in vitro cytotoxicity assay; type: cell-based
Description: as §4

[2] = test system: brain cells (neurons and astrocytes); test: fluorescent viability stain with immunocytochemistry; type: cell-based; settings: ethidium homodimer and calcein AM
Description: (§5) The motor neuron sensitivity may help to explain the type II muscle atrophy observed (as predicted) in a small group of patients where the AUC concentration of the drug is elevated due to diminished excretion.

[3] = test system: motor (choline acetyl transferatse positive) neurons in the spinal cord; test: as above; type: cell-based; settings: ethidium homodimer and calcein AM
Description: as §5

[4] = test system: substance P positive sensory neurones; test: as above; type: cell-based; settings: ethidium homodimer and calcein AM
Description: as §5

aplidine
quantitative change in B-RAF expression (B-RAF; 6 Hours): +2.0 fold | quantitative change in B-RAF expression (B-RAF; 24 Hours): +2.6 fold | levels of B-RAF, in words (B-RAF; MOLT-4, 6 hours after recovery in drug-free medium): increase | quantitative change in PLK-1 expression (PLK-1; 6 Hours): +3.0 fold | quantitative change in PLK-1 expression (PLK-1; 24 Hours): +4.4 fold | intracellular VEGF (VEGF): increased intracellular accumulation of VEGF | VEGF secretion, in words (VEGF; 1 h with 20 nM aplidine): strong reduction of VEGF secretion; also recorded: severely inhibit production; also recorded: Blocks VEGF Secretion | concentration at which block of VEGF secretion is already observable (VEGF; concentration-dependent): 5 nm | LD50 (cardiac H9 c2 (2-1)): 1 µM | LD50 (kidney (NRK-52E) cells): 0.1 nM | LD50 (liver (AML-12)): 1 µM | LD50 [1]: 0.1 µM | LD50 (skeletal muscle (L8)): 0.1 nM | toxic concentration [2]: approximately 1 μM | toxic concentration [3]: approximately 1 μM | toxicity at approximately 1 μM [4]: but not substance P positive sensory neurones
